From patent US12435058B2, “KIF18A inhibitors” (AMGEN INC., priority 2019, dated 2025)

What follows are compounds tested against T1, Recombinant human KIF18A (1-467 His-tagged) protein (Homo sapiens, UniProt Q8NI77) (assay: KIF18A Enzyme Assay (microtubule-stimulated ATPase activity, ADP-Glo)). Conditions: KIF18A protein 30 nM, ATP 75 μM (at Km), 30 μg/mL pig microtubules, ADP-Glo luminescence.
T1 construct: Recombinant human KIF18A (1-467 His-tagged) protein; His; made in house
Assay type: biochemical
Description: For compounds in Table A, the following assay conditions were employed:
KIF18A Enzyme Assay: Microtubule-stimulated ATPase activity assay is used to measure KIF18A enzyme activity after treatment with compound. Compounds were 2-fold serially diluted in DMSO (Sigma Inc) over 22-point concentration range. Recombinant human KIF18A (1-467 His-tagged) protein was expressed using a baculovirus system and purified by affinity chromatography by Amgen Inc. Concentrations of KIF18A protein, microtubules (MT), and ATP in the reaction were optimized for standardized homogenous enzyme assay using ADP-Glom Kinase/ATPase Assay Kit (Promega Inc). The assay measures ADP formed from the ATPase reaction. […] Read luminescence using EnVision microplate reader with ultra-luminescence module (Perkin Elmer Inc). Concentration-response curve-fitting and IC50 determination was performed using Genedata Screener Software (Standard 15.0.1, Genedata Inc) with a four-parameter logistic regression fit model.

T1 sequence (Q8NI77 1-467): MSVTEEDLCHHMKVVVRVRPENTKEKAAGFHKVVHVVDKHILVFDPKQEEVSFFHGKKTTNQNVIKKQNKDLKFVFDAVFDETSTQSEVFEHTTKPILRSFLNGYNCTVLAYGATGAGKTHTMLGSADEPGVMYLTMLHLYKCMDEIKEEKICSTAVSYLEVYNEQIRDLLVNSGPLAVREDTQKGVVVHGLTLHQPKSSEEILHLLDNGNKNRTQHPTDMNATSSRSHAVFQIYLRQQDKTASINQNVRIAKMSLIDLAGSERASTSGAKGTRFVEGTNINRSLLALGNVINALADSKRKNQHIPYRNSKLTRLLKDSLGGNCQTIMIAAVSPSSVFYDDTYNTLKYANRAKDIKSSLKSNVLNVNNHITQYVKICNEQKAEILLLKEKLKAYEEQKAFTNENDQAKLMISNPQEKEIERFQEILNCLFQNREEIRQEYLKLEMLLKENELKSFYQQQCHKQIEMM
T1 sequence (P02550 whole entry partner): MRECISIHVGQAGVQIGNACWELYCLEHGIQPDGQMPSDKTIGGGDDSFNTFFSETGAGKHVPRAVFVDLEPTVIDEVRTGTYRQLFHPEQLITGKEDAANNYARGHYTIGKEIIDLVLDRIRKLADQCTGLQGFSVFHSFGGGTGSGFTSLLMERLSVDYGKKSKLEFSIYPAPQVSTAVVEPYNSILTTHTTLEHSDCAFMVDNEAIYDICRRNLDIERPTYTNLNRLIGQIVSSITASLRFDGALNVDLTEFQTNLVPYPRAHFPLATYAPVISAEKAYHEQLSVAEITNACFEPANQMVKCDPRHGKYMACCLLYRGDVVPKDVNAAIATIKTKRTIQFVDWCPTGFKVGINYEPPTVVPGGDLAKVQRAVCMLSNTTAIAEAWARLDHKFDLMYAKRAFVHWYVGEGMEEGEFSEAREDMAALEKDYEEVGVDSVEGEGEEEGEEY
T1 sequence (P02554 whole entry partner): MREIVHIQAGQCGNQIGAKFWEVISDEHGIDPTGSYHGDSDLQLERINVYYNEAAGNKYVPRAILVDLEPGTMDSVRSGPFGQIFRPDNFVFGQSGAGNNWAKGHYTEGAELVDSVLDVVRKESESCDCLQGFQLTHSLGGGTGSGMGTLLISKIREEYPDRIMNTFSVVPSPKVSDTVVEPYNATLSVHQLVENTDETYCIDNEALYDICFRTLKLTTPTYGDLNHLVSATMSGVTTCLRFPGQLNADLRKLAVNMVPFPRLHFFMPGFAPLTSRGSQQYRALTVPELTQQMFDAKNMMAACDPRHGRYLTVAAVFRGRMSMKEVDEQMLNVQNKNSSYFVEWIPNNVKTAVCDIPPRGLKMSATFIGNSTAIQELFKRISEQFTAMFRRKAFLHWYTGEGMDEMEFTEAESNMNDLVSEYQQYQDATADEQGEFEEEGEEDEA

| IC50 [nM] | Structure (SMILES) |
| --- | --- |
| 67 | CC(C)(CO)Nc1cnc(C(=O)Nc2cccc(S(=O)(=O)[C@H]3CCC(F)(F)C3)c2)c(N2CCC3(CC2)CC3)n1 (single isomer, unassigned) [Example 102-1] |
| 111 | CC(C)(CO)Nc1cnc(C(=O)Nc2cccc(S(=O)(=O)[C@@H]3CCC(F)(F)C3)c2)c(N2CCC3(CC2)CC3)n1 (single isomer, unassigned) [Example 102-2] |
| 174 | CC(C)(C)NS(=O)(=O)c1cccc(NC(=O)c2ncc([C@@](C)(O)C(F)(F)F)nc2N2CCC3(CC2)CC3)c1 (single isomer, unassigned) [Example 105-1] |
| 356 | CC(C)(C)NS(=O)(=O)c1cccc(NC(=O)c2ncc([C@](C)(O)C(F)(F)F)nc2N2CCC3(CC2)CC3)c1 (single isomer, unassigned) [Example 105-2] |
| 82 | CC(C)(C)NS(=O)(=O)c1cccc(NC(=O)c2ncc(NC(C)(C)CO)nc2N2CCC3(CC2)CC3)c1 [Example 100, N-(3-(N-(tert-Butyl)sulfamoyl)phenyl)-5-((1-hydroxy-2-methylpropan-2-yl)amino)-3-(6-azaspiro[2.5]octan-6-yl)pyrazine-2-carboxamide] |
| 177 | CC1CCN(c2nc(NC(C)(C)CO)cnc2C(=O)Nc2cccc(S(=O)(=O)NC(C)(C)C)c2)CC1 [Example 100-1, N-(3-(N-(tert-butyl)sulfamoyl)phenyl)-5-((1-hydroxy-2-methylpropan-2-yl)amino)-3-(4-methylpiperidin-1-yl)pyrazine-2-carboxamide] |
| 342 | CC(C)(C)NS(=O)(=O)c1cccc(NC(=O)c2ncc(NC(C)(C)CO)nc2N2CCC(F)(F)CC2)c1 [Example 100-2, N-(3-(N-(tert-butyl)sulfamoyl)phenyl)-3-(4,4-difluoropiperidin-1-yl)-5-((1-hydroxy-2-methylpropan-2-yl)amino)pyrazine-2-carboxamide] |
| 455 | CC(C)(C)NS(=O)(=O)c1cccc(NC(=O)c2ncc(NC(C)(C)CO)nc2N2CCC(C(F)(F)F)CC2)c1 [Example 100-3, N-(3-(N-(tert-butyl)sulfamoyl)phenyl)-5-((1-hydroxy-2-methylpropan-2-yl)amino)-3-(4-(trifluoromethyl)piperidin-1-yl)pyrazine-2-carboxamide] |
| 133 | CCC1CCN(c2nc(NC(C)(C)CO)cnc2C(=O)Nc2cccc(S(=O)(=O)NC(C)(C)C)c2)CC1 [Example 100-4, N-(3-(N-(tert-butyl)sulfamoyl)phenyl)-3-(4-ethylpiperidin-1-yl)-5-((1-hydroxy-2-methylpropan-2-yl)amino)pyrazine-2-carboxamide] |
| 190 | CC1(C)CCN(c2nc(NC(C)(C)CO)cnc2C(=O)Nc2cccc(S(=O)(=O)NC(C)(C)C)c2)CC1 [Example 100-5, N-(3-(N-(tert-butyl)sulfamoyl)phenyl)-3-(4,4-dimethylpiperidin-1-yl)-5-((1-hydroxy-2-methylpropan-2-yl)amino)pyrazine-2-carboxamide] |
| 319 | CC(C)C1CCN(c2nc(NC(C)(C)CO)cnc2C(=O)Nc2cccc(S(=O)(=O)NC(C)(C)C)c2)CC1 [Example 100-6, N-(3-(N-(tert-butyl)sulfamoyl)phenyl)-5-((1-hydroxy-2-methylpropan-2-yl)amino)-3-(4-isopropylpiperidin-1-yl)pyrazine-2-carboxamide] |
| 788 | CC(C)(C)NS(=O)(=O)c1cccc(NC(=O)c2ncc(NC(C)(C)CO)nc2N2CCC(C(C)(C)C)CC2)c1 [Example 100-7, 3-(4-(tert-butyl)piperidin-1-yl)-N-(3-(N-(tert-butyl)sulfamoyl)phenyl)-5-((1-hydroxy-2-methylpropan-2-yl)amino)pyrazine-2-carboxamide] |
| 163 | CCC(C)C1CCN(c2nc(NC(C)(C)CO)cnc2C(=O)Nc2cccc(S(=O)(=O)NC(C)(C)C)c2)CC1 (stereo not shown) [Example 100-8, 3-(4-(sec-butyl)piperidin-1-yl)-N-(3-(N-(tert-butyl)sulfamoyl)phenyl)-5-((1-hydroxy-2-methylpropan-2-yl)amino)pyrazine-2-carboxamide] |
| 118 | CCCC1CCN(c2nc(NC(C)(C)CO)cnc2C(=O)Nc2cccc(S(=O)(=O)NC(C)(C)C)c2)CC1 [Example 100-9, N-(3-(N-(tert-butyl)sulfamoyl)phenyl)-5-((1-hydroxy-2-methylpropan-2-yl)amino)-3-(4-propylpiperidin-1-yl)pyrazine-2-carboxamide] |
| 221 | CC(C)(C)NS(=O)(=O)c1cccc(NC(=O)c2ncc(NC(C)(C)CO)nc2N2CCC(C3CC3)CC2)c1 [Example 100-10, N-(3-(N-(tert-butyl)sulfamoyl)phenyl)-3-(4-cyclopropylpiperidin-1-yl)-5-((1-hydroxy-2-methylpropan-2-yl)amino)pyrazine-2-carboxamide] |
| 1390 | COCC1CCN(c2nc(NC(C)(C)CO)cnc2C(=O)Nc2cccc(S(=O)(=O)NC(C)(C)C)c2)CC1 [Example 100-11, N-(3-(N-(tert-butyl)sulfamoyl)phenyl)-5-((1-hydroxy-2-methylpropan-2-yl)amino)-3-(4-(methoxymethyl)piperidin-1-yl)pyrazine-2-carboxamide] |
| 931 | CC(C)(C)NS(=O)(=O)c1cccc(NC(=O)c2ncc(NC(C)(C)CO)nc2N2CC3(CCC3)C2)c1 [Example 100-12, N-(3-(N-(tert-butyl)sulfamoyl)phenyl)-5-((1-hydroxy-2-methylpropan-2-yl)amino)-3-(2-azaspiro[3.3]heptan-2-yl)pyrazine-2-carboxamide] |
| 410 | CC(C)(C)NS(=O)(=O)c1cccc(NC(=O)c2ncc(NC(C)(C)CO)nc2N2CC3(CCCCC3)C2)c1 [Example 100-13, N-(3-(N-(tert-butyl)sulfamoyl)phenyl)-5-((1-hydroxy-2-methylpropan-2-yl)amino)-3-(2-azaspiro[3.5]nonan-2-yl)pyrazine-2-carboxamide] |
| 1380 | CC(C)(C)NS(=O)(=O)c1cccc(NC(=O)c2ncc(NC(C)(C)CO)nc2N2CCC3(CCOCC3)CC2)c1 [Example 100-14, N-(3-(N-(tert-butyl)sulfamoyl)phenyl)-5-((1-hydroxy-2-methylpropan-2-yl)amino)-3-(3-oxa-9-azaspiro[5.5]undecan-9-yl)pyrazine-2-carboxamide] |
| 77 | CC(C)(C)NS(=O)(=O)c1cccc(NC(=O)c2ncc(NC(C)(C)CO)nc2N2CCC3(CCC3)CC2)c1 [Example 100-15, N-(3-(N-(tert-butyl)sulfamoyl)phenyl)-5-((1-hydroxy-2-methylpropan-2-yl)amino)-3-(7-azaspiro[3.5]nonan-7-yl)pyrazine-2-carboxamide] |
| 215 | CC(C)(C)NS(=O)(=O)c1cccc(NC(=O)c2ncc(NC(C)(C)CO)nc2N2CCC3(CC2)CC(F)(F)C3)c1 [Example 100-16, N-(3-(N-(tert-butyl)sulfamoyl)phenyl)-3-(2,2-difluoro-7-azaspiro[3.5]nonan-7-yl)-5-((1-hydroxy-2-methylpropan-2-yl)amino)pyrazine-2-carboxamide] |
| 129 | CC(C)(C)NS(=O)(=O)c1cccc(NC(=O)c2ncc(NC(C)(C)CO)nc2N2CCC3(CCCC3)CC2)c1 [Example 100-17, N-(3-(N-(tert-butyl)sulfamoyl)phenyl)-5-((1-hydroxy-2-methylpropan-2-yl)amino)-3-(8-azaspiro[4.5]decan-8-yl)pyrazine-2-carboxamide] |
| 231 | Cc1cc(NC(=O)c2ncc(NC(C)(C)CO)nc2N2CCC3(CC2)CC3)cc(S(=O)(=O)NC(C)(C)C)c1 [Example 101, N-(3-(N-(tert-Butyl)sulfamoyl)-5-methylphenyl)-5-((1-hydroxy-2-methylpropan-2-yl)amino)-3-(6-azaspiro[2.5]octan-6-yl)pyrazine-2-carboxamide] |
| 108 | CC(C)(CO)Nc1cnc(C(=O)Nc2cccc(S(=O)(=O)C(C)(C)C(F)(F)F)c2)c(N2CCC3(CC2)CC3)n1 [Example 101-1, 5-((1-hydroxy-2-methylpropan-2-yl)amino)-3-(6-azaspiro[2.5]octan-6-yl)-N-(3-((1,1,1-trifluoro-2-methylpropan-2-yl)sulfonyl)phenyl)pyrazine-2-carboxamide] |
| 218 | CC(C)(CO)Nc1cnc(C(=O)Nc2cccc(S(=O)(=O)C(C)(C)C)c2)c(N2CCC3(CC2)CC3)n1 [Example 101-2, N-(3-(tert-butylsulfonyl)phenyl)-5-((1-hydroxy-2-methylpropan-2-yl)amino)-3-(6-azaspiro[2.5]octan-6-yl)pyrazine-2-carboxamide] |
| 204 | CC(C)(CO)Nc1cnc(C(=O)Nc2cccc(S(=O)(=O)C3(C)CCC3)c2)c(N2CCC3(CC2)CC3)n1 [Example 101-3, 5-((1-hydroxy-2-methylpropan-2-yl)amino)-N-(3-((1-methylcyclobutyl)sulfonyl)phenyl)-3-(6-azaspiro[2.5]octan-6-yl)pyrazine-2-carboxamide] |
| 172 | CC(C)(C)NS(=O)(=O)c1cc(F)cc(NC(=O)c2ncc(NC(C)(C)CO)nc2N2CCC3(CC2)CC3)c1 [Example 101-4, N-(3-(N-(tert-butyl)sulfamoyl)-5-fluorophenyl)-5-((1-hydroxy-2-methylpropan-2-yl)amino)-3-(6-azaspiro[2.5]octan-6-yl)pyrazine-2-carboxamide] |
| 527 | CC(C)(C)NS(=O)(=O)c1cccc(NC(=O)c2ncc(NC(C)(C)CO)nc2N2CCC3(CC2)CC3)c1F [Example 101-5, N-(3-(N-(tert-butyl)sulfamoyl)-2-fluorophenyl)-5-((1-hydroxy-2-methylpropan-2-yl)amino)-3-(6-azaspiro[2.5]octan-6-yl)pyrazine-2-carboxamide] |
